Data on one compound can be found in PMC9513230, “Inhibition of Plasmodium falciparum Hsp70-Hop partnership by 2-phenylthynesulfonamide” (Frontiers in Molecular Biosciences, 2022).

In experiment [1] the target is T1, PfHop (Plasmodium falciparum, UniProt Q8ILC1).
T1 construct: His; made in house; host or cells: E. coli XL1 Blue
T1 sequence (Q8ILC1 1-564): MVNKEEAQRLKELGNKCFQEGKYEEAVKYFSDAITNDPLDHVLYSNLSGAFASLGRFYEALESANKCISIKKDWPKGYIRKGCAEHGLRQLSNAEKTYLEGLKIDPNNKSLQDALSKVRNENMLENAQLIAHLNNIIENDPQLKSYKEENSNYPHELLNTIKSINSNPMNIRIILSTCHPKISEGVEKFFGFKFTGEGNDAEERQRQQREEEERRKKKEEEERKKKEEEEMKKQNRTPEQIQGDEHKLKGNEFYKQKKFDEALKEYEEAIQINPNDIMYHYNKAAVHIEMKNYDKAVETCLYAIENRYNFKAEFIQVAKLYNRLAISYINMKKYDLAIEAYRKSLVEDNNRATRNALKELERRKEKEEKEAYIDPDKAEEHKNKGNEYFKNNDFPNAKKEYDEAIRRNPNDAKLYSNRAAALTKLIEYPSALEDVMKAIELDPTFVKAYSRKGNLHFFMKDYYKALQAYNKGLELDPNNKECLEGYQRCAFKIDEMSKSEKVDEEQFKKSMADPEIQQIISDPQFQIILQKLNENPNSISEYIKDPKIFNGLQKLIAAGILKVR
Kind of experiment: SPR equilibrium binding to immobilized PfHop. To be noted: SPR, ligand PfHop immobilized, 25°C; read-out: KD. The protocol:
The steady-state equilibrium binding kinetics for the inhibitors on either PfHsp70-1 or PfHop were investigated using BioNavis Navi 420A ILVES multi-parametric surface plasmon resonance (MP-SPR) system (BioNavis, Finland) following a previously described method ([Lebepe et al., 2020]; [Chakafana et al., 2021]). Briefly, filter-sterilized de-gassed PBS (4.3 mM Na2HPO4, 1.4 mM KH2PO4, 137 mM NaCl, 3 mM KCl, 0.005% (v/v) Tween 20, and 20 mM EDTA; pH 7.4) was used as running buffer for the assay. The ligand (0.1 μg/ml of PfHsp70-1/PfHop) was immobilized onto a carboxymethyl dextran (CMD 3-D) gold sensor chip through amine coupling. PES was injected (flow rate of 50 μl/min) as analyte at varying final concentrations (0, 1.25, 2.5, 5, 10, 20 nM). […] Steady-state equilibrium was achieved after allowing the interaction to occur for 8 min at 25°C, followed by dissociation for 4 min at 25°C, respectively. The data generated were analyzed using Data Viewer (BioNavis, Finland) after subtraction of baseline (signals generated on the chip surface without protein immobilized and buffer without inhibitor). The resultant sensorgrams were analyzed to determine the equilibrium binding affinities using Trace Drawer software version 1.8 (Ridgeview Instruments; Sweden).

Another experiment deals with PfHsp70-1NBD (Plasmodium falciparum, UniProt Q8IB24). Kind of experiment: SPR equilibrium binding to immobilized PfHsp70-1NBD. To be noted: ligand PfHsp70-1NBD immobilized, 25°C.
In experiment [2] the target is PfHsp70-1-PfHop association (Plasmodium falciparum, UniProt Q8IB24+Q8ILC1). Kind of experiment: ELISA for the direct association of PfHsp70-1 and PfHop. The class given is biochemical. The protocol:
An enzyme-linked immunosorbent assay (ELISA) was used to validate the effect of PES on the direct association of PfHsp70-1 and PfHop following a previously described protocol ([Mabate et al., 2018]). Briefly, ligand (5 μg/ml of PfHsp70-1) suspended in 5 mM sodium bicarbonate (NaHCO3) at pH 9.5 was noncovalently immobilized onto a 96 well plate overnight at 4 C. BSA (5 μg/ml) was used as a ligand for the negative control. The wells were washed with 150 µl TBST which contains (Tris-buffered saline- Tween (TBST; 20 mM Tris HCl, pH 7.5, 500 mM NaCl supplemented with 0.1% Tween 20) prior to blocking with 5% fat-free milk in TBST and incubated at 25 C for 1 h. The wells were washed using TBST for a total of 10 min. Varying concentrations (0–1,000 nM) of analyte PfHop were added to the wells and incubated for 2 h at 25 °C. To remove the unbound analyte, the plate was washed with 150 µl TBST three times before the addition of rabbit-raised α-PfHop antibody (1: 4,000) followed by incubation at 25°C for 1 h. Subsequently, the wells were washed with 150 µl TBST three times before the addition of 100 µl secondary HRP conjugated goat-raised α-rabbit antibody (1: 4,000) and incubated for 45 min at 25 °C. The substrate, 3,3’5,5’ –tetramethylbenzidine (TMB) (Bio Scientific, United States) was added into the wells and incubated for 2 min at 25 C. Color development was monitored by recording absorbance readings at 370 nm at 5 min time intervals for 30 min using a SpectraMax M3 Microplate reader (Molecular Devices, United States). To determine the effect of the inhibitor, the assay was conducted in the presence of 25 µM) of PES. […] Furthermore, the assay was repeated interchanging the ligand and analyte to validate data reproducibility. The generated data were analyzed taking into account the background signal generated by BSA which served as the control protein. The absorbance values obtained at the highest concentration of each analyte were averaged to represent maximum (100%) binding. Titration curves were then generated using GraphPad Prism 9.3.1 (GraphPad Software, United States). The relative binding affinities of PES under each experimental setting were normalized relative to the affinity estimated for assay conducted in the absence of nucleotide at the highest concentration of PfHop. Statistical analysis was conducted to establish significant differences at p < 0.05 using a student t-test.

The subject of experiment [3] is Asexual P. falciparum strain 3D7 parasites. The experiment can be described thus: Parasite growth inhibition assay (SYBR Gold). It counts as cell-based. To be noted: Plasmodium falciparum; P. falciparum 3D7, asexual blood stage, 96 h, n = 3; read-out: IC50 parasite growth. The protocol:
Parasite growth without any drug present, which allowed the parasites to proliferate unrestricted, was used as negative drug control. SYBRTM Gold DNA stain (Invitrogen, ThermoFisher Scientific Inc., Germany) was used to measure the proliferation of the parasites compared to the controls as previously described ([[…] al., 2004]). Fluorescence was measured using a TECAN Spark® multimode microplate reader (Tecan Trading AG, Switzerland) and the data were analyzed using SigmaPlot, version 12 (Systat Software Inc., IL, United States).

Experiment [4] addresses T1, PfHop. Kind of experiment: Intrinsic fluorescence analysis of PfHop tertiary structure. To be noted: PfHop 4 µM with 20 µM PES, excitation 295 nm; apo state 339 nm. The protocol: The effect of PES on the tertiary structural conformation of recombinant PfHsp70-1 and PfHop proteins relative to the nucleotide-dependent conformations were assessed by monitoring intrinsic fluorescence as previously described ([Zininga et al., 2016]; [Lebepe et al., 2020]). […] The assay was repeated in the presence of 20 µM PES. Fluorescence emission spectra were monitored at 300–400 nm after initial excitation at 295 nm. The spectra data collected from seven spectral scans were averaged and processed taking into account the baseline (effect of buffer in the absence of protein).

Another experiment concerns PfHsp70-1. The experiment can be described thus: MDH heat-induced aggregation suppression (holdase chaperone activity). The class given is biochemical, Plasmodium falciparum. To be noted: MDH aggregation at 51°C, 360 nm; PES 5-100 nM. The protocol: In the current study, we investigated the effect of PES on the holdase chaperone activity of PfHsp70-1. The assay was initiated by adding 1,25 µM MDH and 0,75 µM PfHsp70-1 to the assay buffer (50 mM Tris-HCl, 100 mM NaCl; pH 7.4) and heated to 51°C. Aggregation of MDH was monitored as a function of light scattering at 360 nm over 30 min at 51°C in a SpectraMax M3 (Molecular Devices, United States) microplate spectrometer. The assay was repeated at varying final concentrations (5, 15, 25, 50, 100 nM) of PES. The chaperone function of PfHsp70-1 under various experimental conditions was compared to the activity of the chaperone recorded in the absence of nucleotide. Statistical analysis was conducted using a student t-test and a p < 0.05 represented functionally significant variation.

The structures appear in SMILES notation.

PfHsp70-1-PfHop association, sequence (Q8IB24 entry or part of it, one chain of several): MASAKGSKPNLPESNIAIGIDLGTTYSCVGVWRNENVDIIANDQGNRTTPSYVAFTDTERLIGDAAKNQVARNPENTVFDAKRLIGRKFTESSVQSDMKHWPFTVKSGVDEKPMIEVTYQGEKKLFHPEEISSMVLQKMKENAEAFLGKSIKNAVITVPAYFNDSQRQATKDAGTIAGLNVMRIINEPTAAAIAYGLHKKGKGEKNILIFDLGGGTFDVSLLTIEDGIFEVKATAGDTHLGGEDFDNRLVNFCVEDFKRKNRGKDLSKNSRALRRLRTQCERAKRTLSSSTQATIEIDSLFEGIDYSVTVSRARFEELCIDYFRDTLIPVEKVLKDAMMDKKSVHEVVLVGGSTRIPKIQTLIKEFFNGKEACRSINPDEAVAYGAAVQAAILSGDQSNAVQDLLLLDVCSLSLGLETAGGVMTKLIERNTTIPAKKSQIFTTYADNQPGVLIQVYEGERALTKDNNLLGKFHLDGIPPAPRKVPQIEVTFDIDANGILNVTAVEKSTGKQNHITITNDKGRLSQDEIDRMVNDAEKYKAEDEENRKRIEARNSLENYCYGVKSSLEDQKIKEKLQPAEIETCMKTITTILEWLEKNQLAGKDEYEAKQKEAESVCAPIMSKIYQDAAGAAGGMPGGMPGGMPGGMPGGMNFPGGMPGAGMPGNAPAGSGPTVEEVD
PfHsp70-1NBD, sequence (Q8IB24 entry or part of it): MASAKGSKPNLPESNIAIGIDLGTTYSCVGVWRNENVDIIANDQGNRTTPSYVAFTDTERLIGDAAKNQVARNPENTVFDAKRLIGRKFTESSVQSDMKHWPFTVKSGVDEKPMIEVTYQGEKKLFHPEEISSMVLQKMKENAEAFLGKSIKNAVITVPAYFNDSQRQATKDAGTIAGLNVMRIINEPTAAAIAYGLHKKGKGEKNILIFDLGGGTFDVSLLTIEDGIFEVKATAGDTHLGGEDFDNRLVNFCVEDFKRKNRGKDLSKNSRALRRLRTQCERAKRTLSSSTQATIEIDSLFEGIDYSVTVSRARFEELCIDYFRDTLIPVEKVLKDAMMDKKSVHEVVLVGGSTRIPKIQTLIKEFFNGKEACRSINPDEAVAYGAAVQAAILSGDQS
Protocol for PfHsp70-1NBD: The steady-state equilibrium binding kinetics for the inhibitors on either PfHsp70-1 or PfHop were investigated using BioNavis Navi 420A ILVES multi-parametric surface plasmon resonance (MP-SPR) system (BioNavis, Finland) following a previously described method ([Lebepe et al., 2020]; [Chakafana et al., 2021]). Briefly, filter-sterilized de-gassed PBS (4.3 mM Na2HPO4, 1.4 mM KH2PO4, 137 mM NaCl, 3 mM KCl, 0.005% (v/v) Tween 20, and 20 mM EDTA; pH 7.4) was used as running buffer for the assay. The ligand (0.1 μg/ml of PfHsp70-1/PfHop) was immobilized onto a carboxymethyl dextran (CMD 3-D) gold sensor chip through amine coupling. […] Similarly, as controls nucleotides (5 µM ATP/ADP) and a known P. falciparum Hsp70 inhibitor, (−)-Epigallocatechin-3-gallate (EGCG; [Zininga et al., 2017b]) were similarly injected at varying final concentrations (0, 1.25, 2.5, 5, 10, 20 nM) over the chip surface. […] The data generated were analyzed using Data Viewer (BioNavis, Finland) after subtraction of baseline (signals generated on the chip surface without protein immobilized and buffer without inhibitor). The resultant sensorgrams were analyzed to determine the equilibrium binding affinities using Trace Drawer software version 1.8 (Ridgeview Instruments; Sweden).

Regarding `NS(=O)(=O)C#Cc1ccccc1` [PES, 2-Phenylthynesulfonamide], the Kd at PfHop [1] came out at 0.707 ± 0.07 µM; on PfHsp70-1NBD, 7.39 ± 0.09 µM. Further, in experiment [2] (25 µM nucleotide or inhibitor), the “Effect on association of PfHsp70-1 and PfHop” value is “abrogated the interaction of PfHsp70-1 and PfHop”. Further, the IC50 in experiment [2] (ligand PfHop, analyte PfHsp70-1) is 0.0381 ± 0.0036 µM; in experiment [2] (ligand PfHsp70-1, analyte PfHop), 0.0324 ± 0.0021 µM; in experiment [3], 38.7 ± 0.7 µM. This compound showed a Fluorescence emission peak at PfHop [4] of 340 nm. Moreover, the “Effect on holdase chaperone activity of PfHsp70-1” value in the experiment on PfHsp70-1 is listed as “inhibited the chaperone activity of PfHsp70-1 in a concentration-dependent fashion”.
